pIC50: −log10 of the molar value.
Legend:
[1] = target: T1, purified wild type MGL (wt-MGLL 6H-11-313) (Homo sapiens, UniProt Q99685); experiment: MGL enzyme activity assay (4MU-B cleavage), wild type MGL; format: biochemical; conditions: wild type MGL 5 nM, 4MU-B 10 μM, 37° C.; read-out: MGL wild type inh IC50
T1 construct: purified wild type MGL (wt-MGLL 6H-11-313)
T1 sequence (Q99685 1-303): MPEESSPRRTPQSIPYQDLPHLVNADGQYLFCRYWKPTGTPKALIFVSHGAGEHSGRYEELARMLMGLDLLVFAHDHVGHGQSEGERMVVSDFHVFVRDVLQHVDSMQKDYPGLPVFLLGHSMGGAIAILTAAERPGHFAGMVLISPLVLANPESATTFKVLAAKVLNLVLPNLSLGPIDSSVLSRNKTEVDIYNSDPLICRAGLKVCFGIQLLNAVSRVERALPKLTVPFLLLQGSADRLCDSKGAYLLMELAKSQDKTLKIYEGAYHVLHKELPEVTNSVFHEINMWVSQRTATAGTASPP
Protocol: All rate-based assays were performed in black 384-well polypropylene PCR microplates (Abgene) in a total volume of 30 μL. Substrate 4-methylumbelliferyl butyrate (4MU-B; Sigma) and either purified mutant MGL (mut-MGLL 11-313 L179S L186S) or purified wild type MGL (wt-MGLL 6H-11-313) were diluted separately into 20 mM PIPES buffer (pH=7.0), containing 150 mM NaCl and 0.001% Tween 20. Compounds of Formula (I) were pre-dispensed (50 nL) into the assay plate using a Cartesian Hummingbird prior to adding 4MU-B (25 μL of 1.2× solution to a final concentration of 10 μM) followed by enzyme (5 μL of a 6× solution to a final concentration of 5 nM) to initiate the reaction. Final compound concentrations ranged from 17 to 0.0003 μM. The fluorescence change due to 4MU-B cleavage was monitored with excitation and emission wavelengths of 335 and 440 nm, respectively, and a bandwidth of 10 nm (Safire^2, Tecan) at 37° C. for 5 min.
The IC50 values for the following compounds were determined using Microsoft Office Excel from a fit of the equation to the concentration-response plot of the fractional activity as a function of inhibitor concentration.

[2] = tested on: MGL (rat brain homogenate); experiment: 2-AG accumulation assay in rat brain homogenate; format: biochemical; conditions: compound 1 μM, percent of vehicle 2-AG accumulation
Protocol: After a 15-min incubation time at 37° C., CaCl2 (final concentration=10 mM) was added and then incubated for 15 min at 37° C. in a total volume of 5 mL. The reactions were stopped with 6 mL organic solvent extraction solution of 2:1 chloroform/methanol. Accumulated 2-AG in the organic phase was measured by a HPLC/MS method, according to the following equation: percent vehicle=(2-AG accumulation in the presence of compound/2-AG accumulation in vehicle)×100.

SMILES | pIC50 [1] | Rat Brain 2AG % VehCntrl (%) @1 μM [2] [%]
O=C(c1ccc(Cc2ccc(C(F)(F)F)cc2)cc1)N1CC(N[C@H]2CCN(C(=O)c3cscn3)C2)C1 [Cpd 144, (3S)-1-(1,3-Thiazol-4-ylcarbonyl)-N-[1-({4-[4-(trifluoromethyl)benzyl]phenyl}carbonyl)azetidin-3-yl]pyrrolidin-3-amine] | > 8.30 | 992
O=C(c1cscn1)N1CC[C@H](NC2CN(C(=O)c3sc4ccc(-c5ccccc5)cc4c3F)C2)C1 [Cpd 172, (3S)-N-{1-[(3-Fluoro-5-phenyl-1-benzothiophen-2-yl)carbonyl]azetidin-3-yl}-1-(1,3-thiazol-4-ylcarbonyl)pyrrolidin-3-amine] | > 8.30 | 532
O=C(c1ccccc1)N1CC[C@H](NC2CN(C(=O)c3ccc(-c4cccc(C(F)(F)F)c4)cc3F)C2)C1 [Cpd 152, (3S)-N-(1-{[3-Fluoro-3′-(trifluoromethyl)biphenyl-4-yl]carbonyl}azetidin-3-yl)-1-(phenylcarbonyl)pyrrolidin-3-amine] | 7.45 | 404
O=C(c1ccccc1)N1CC[C@H](NC2CN(C(=O)c3cc4cc(-c5ccc(Cl)s5)ccc4o3)C2)C1 [Cpd 122, (3S)-N-(1-{[5-(5-Chlorothiophen-2-yl)-1-benzofuran-2-yl]carbonyl}azetidin-3-yl)-1-(phenylcarbonyl)pyrrolidin-3-amine] | 7.22 | 152
O=C(c1ccc(C(O)c2ccc(C(F)(F)F)cc2)cc1)N1CC(N[C@H]2CCN(C(=O)c3ccccc3)C2)C1 (stereo partly shown) [Cpd 67] | 8.01 | 928
Cc1c(C(=O)N2CC(N[C@H]3CCN(C(=O)c4cscn4)C3)C2)sc2ccc(Cl)cc12 [Cpd 85, (3S)-N-{1-[(5-Chloro-3-methyl-1-benzothiophen-2-yl)carbonyl]azetidin-3-yl}-1-(1,3-thiazol-4-ylcarbonyl)pyrrolidin-3-amine] | 7.32 | 335
O=C(c1cscn1)N1CC[C@H](NC2CN(C(=O)c3sc4ccc(-c5ccc(C(F)(F)F)cc5)cc4c3F)C2)C1 [Cpd 175, (3S)-N-[1-({3-Fluoro-5-[4-(trifluoromethyl)phenyl]-1-benzothiophen-2-yl}carbonyl)azetidin-3-yl]-1-(1,3-thiazol-4-ylcarbonyl)pyrrolidin-3-amine] | > 8.30 | 734
O=C(c1cscn1)N1CC[C@H](NC2CN(C(=O)c3sc4cc(-c5cccc(C(F)(F)F)c5)ccc4c3Cl)C2)C1 [Cpd 149, (3S)-N-[1-({3-Chloro-6-[3-(trifluoromethyl)phenyl]-1-benzothiophen-2-yl}carbonyl)azetidin-3-yl]-1-(1,3-thiazol-4-ylcarbonyl)pyrrolidin-3-amine] | > 8.30 | 811
O=C(c1ccc(Cc2cccc(C(F)(F)F)c2)cc1)N1CC(N[C@H]2CCN(C(=O)c3cscn3)C2)C1 [Cpd 127, (3S)-1-(1,3-Thiazol-4-ylcarbonyl)-N-[1-({4-[3-(trifluoromethyl)benzyl]phenyl}carbonyl)azetidin-3-yl]pyrrolidin-3-amine] | > 8.30 | 618
O=C(c1ccc(-c2ccc(C(F)(F)F)cc2)cc1)N1CC(N[C@H]2CCN(C(=O)c3cscn3)C2)C1 [Cpd 145, (3S)-1-(1,3-Thiazol-4-ylcarbonyl)-N-(1-{[4′-(trifluoromethyl)biphenyl-4-yl]carbonyl}azetidin-3-yl)pyrrolidin-3-amine] | 7.02 | 193
Cc1c(C(=O)N2CC(N[C@H]3CCN(C(=O)c4ccccc4)C3)C2)sc2cc(C(F)(F)F)ccc12 [Cpd 80, (3S)-N-(1-{[3-Methyl-6-(trifluoromethyl)-1-benzothiophen-2-yl]carbonyl}azetidin-3-yl)-1-(phenylcarbonyl)pyrrolidin-3-amine] | 7.65 | 174
Cn1cc(-c2ccc(F)cc2)c2ccc(C(=O)N3CC(N[C@H]4CCN(C(=O)c5ccccc5)C4)C3)cc21 [Cpd 194, (3S)-N-(1-{[3-(4-Fluorophenyl)-1-methyl-1H-indol-6-yl]carbonyl}azetidin-3-yl)-1-(phenylcarbonyl)pyrrolidin-3-amine] | 7.35 | 178
O=C(c1ccccc1)N1CC[C@H](NC2CN(C(=O)c3sc4ccc(Cl)cc4c3C(F)(F)F)C2)C1 [Cpd 180, (3S)-N-(1-{[5-Chloro-3-(trifluoromethyl)-1-benzothiophen-2-yl]carbonyl}azetidin-3-yl)-1-(phenylcarbonyl)pyrrolidin-3-amine] | 7.37 | 333

The next lines start with results.

pIC50 [1] | SMILES | Rat Brain 2AG % VehCntrl (%) @1 μM [2] [%]
7.64 | O=C(c1nccs1)N1CC[C@H](NC2CN(C(=O)c3sc4cc(Cl)ccc4c3C(F)(F)F)C2)C1 [Cpd 183, (3S)-N-(1-{[6-Chloro-3-(trifluoromethyl)-1-benzothiophen-2-yl]carbonyl}azetidin-3-yl)-1-(1,3-thiazol-2-ylcarbonyl)pyrrolidin-3-amine] | 316
> 8.30 | O=C(c1nccs1)N1CC[C@H](NC2CN(C(=O)c3cc4ccn(-c5ccc(F)cc5)c4cc3F)C2)C1 [Cpd 212, (3S)-N-(1-{[6-Fluoro-1-(4-fluorophenyl)-1H-indol-5-yl]carbonyl}azetidin-3-yl)-1-(1,3-thiazol-2-ylcarbonyl)pyrrolidin-3-amine] | 582
> 8.30 | Cc1c(C(=O)N2CC(N[C@H]3CCN(C(=O)c4nccs4)C3)C2)sc2ccc(-c3cccc(C(F)(F)F)c3)cc12 [Cpd 90, (3S)-N-[1-({3-Methyl-5-[3-(trifluoromethyl)phenyl]-1-benzothiophen-2-yl}carbonyl)azetidin-3-yl]-1-(1,3-thiazol-2-ylcarbonyl)pyrrolidin-3-amine] | 1130
7.47 | Cc1c(C(=O)N2CC(N[C@H]3CCN(C(=O)c4nccs4)C3)C2)sc2cc(F)ccc12 [Cpd 87, (3S)-N-{1-[(6-Fluoro-3-methyl-1-benzothiophen-2-yl)carbonyl]azetidin-3-yl}-1-(1,3-thiazol-2-ylcarbonyl)pyrrolidin-3-amine] | 385
8.00 | O=C(c1ccc(-c2ccc(C(F)(F)F)cc2)cc1)N1CC(N[C@H]2CCN(C(=O)c3nccs3)C2)C1 [Cpd 115, (3S)-1-(1,3-Thiazol-2-ylcarbonyl)-N-(1-{[4′-(trifluoromethyl)biphenyl-4-yl]carbonyl}azetidin-3-yl)pyrrolidin-3-amine] | 310
> 8.30 | O=C(c1cc2cc(-c3ccccc3)ccc2s1)N1CC(N[C@H]2CCN(C(=O)c3nccs3)C2)C1 [Cpd 129, (3S)-N-{1-[(5-Phenyl-1-benzothiophen-2-yl)carbonyl]azetidin-3-yl}-1-(1,3-thiazol-2-ylcarbonyl)pyrrolidin-3-amine] | 590
7.96 | O=C(c1nccs1)N1CC[C@H](NC2CN(C(=O)c3sc4cc(C(F)(F)F)ccc4c3Cl)C2)C1 [Cpd 167, (3S)-N-(1-{[3-Chloro-6-(trifluoromethyl)-1-benzothiophen-2-yl]carbonyl}azetidin-3-yl)-1-(1,3-thiazol-2-ylcarbonyl)pyrrolidin-3-amine] | 695
